A short description of data set [1]: Cmax in C57BLKS/J-m+/+Leprdb db/db mouse at 1 mg/kg, po once daily for 11 days. It counts as ADME, organism-based. The arrangement: dose 1 mg/kg, route oral. To be noted: in vivo.
Data set [2] has as its system Rattus norvegicus. Put plainly: Antidiabetic activity in Zucker fa/fa rat assessed as decrease in free fatty acid levels at 1 mg/kg, po once daily for 7 days. It counts as functional, organism-based. Also on record: dose 1 mg/kg.
Data set [3] has as its system Rattus norvegicus. As to the kind of experiment: Antidiabetic activity in Zucker fa/fa rat assessed as decrease in triglyceride levels at 3 mg/kg, po once daily for 7 days. Also on record: dose 3 mg/kg. It counts as functional, organism-based.
Data set [4] can be described thus: Cmax in Syrian golden hamster at 0.3 mg/kg, po once daily for 9 days. It counts as ADME, organism-based, Mesocricetus auratus. The arrangement: dose 0.3 mg/kg, route oral. To be noted: in vivo.
The nature of data set [5]: Cmax in Syrian golden hamster at 1 mg/kg, po once daily for 9 days. It counts as ADME, organism-based, Mesocricetus auratus. Also on record: dose 1 mg/kg, route oral. The settings on record: in vivo.
The nature of data set [6]: AUC in Syrian golden hamster at 3 mg/kg, po once daily for 9 days. It counts as ADME, organism-based, Mesocricetus auratus. The arrangement: dose 3 mg/kg, route oral. To be noted: plasma.
The test system of data set [7] is Canis familiaris. As to the kind of experiment: Antidiabetic activity in Beagle dog assessed as reduction in total cholesterol level at 1 mg/kg, po once daily for 14 days relative to control. It counts as functional, Canis lupus familiaris. The arrangement: scale not given: the % may be the effect or the level left.
Data set [8] in a line: Cmax in Beagle dog at 3 mg/kg, po once daily for 14 days. It counts as ADME, organism-based, Canis lupus familiaris. Also on record: dose 3 mg/kg, route oral. The settings on record: in vivo.
Data set [9] is described as follows: AUC in Sprague-Dawley rat at 60 mg/kg, po once daily for 14 days. It counts as ADME, organism-based. The arrangement: dose 60 mg/kg, route oral. The settings on record: plasma.
Data set [10] has as its system Rattus norvegicus. Put plainly: Toxicity in Sprague-Dawley rat assessed as increase in liver weight at 60 mg/kg, po once daily for 14 days. It counts as organism-based. Also on record: dose 60 mg/kg, route oral. To be noted: in vivo, 336 h.
Data set [11] has as its target T1, Peroxisome proliferator-activated receptor alpha (Homo sapiens, UniProt Q07869).
T1 sequence (Q07869 whole entry): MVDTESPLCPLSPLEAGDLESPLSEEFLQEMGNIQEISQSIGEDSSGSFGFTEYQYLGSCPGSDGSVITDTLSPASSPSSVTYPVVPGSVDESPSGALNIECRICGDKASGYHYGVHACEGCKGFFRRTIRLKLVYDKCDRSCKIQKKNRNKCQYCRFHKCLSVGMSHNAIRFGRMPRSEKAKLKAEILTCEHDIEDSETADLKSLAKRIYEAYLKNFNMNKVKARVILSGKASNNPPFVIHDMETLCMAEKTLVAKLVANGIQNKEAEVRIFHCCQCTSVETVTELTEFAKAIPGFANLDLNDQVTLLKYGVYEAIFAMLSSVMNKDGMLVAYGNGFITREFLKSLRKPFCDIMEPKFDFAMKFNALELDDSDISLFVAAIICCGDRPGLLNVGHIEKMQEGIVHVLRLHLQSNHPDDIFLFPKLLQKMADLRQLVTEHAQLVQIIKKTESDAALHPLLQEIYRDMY
As to the kind of experiment: Inhibition of human PPARalpha receptor by scintillation proximity assay.

In data set [12] the target is T1, Peroxisome proliferator-activated receptor alpha. It counts as functional, cell-based, COS-1.
Description: Agonist activity at human PPARalpha receptor expressed in african green monkey COS1 cells co-transfected with fused yeast Gal4-DBD by transactivation assay
In data set [13] the target is Cytochrome P450 2D6 (Homo sapiens, UniProt P10635). Put plainly: Inhibition of CYP2D6. It counts as ADME.
Data set [14] addresses Cytochrome P450 2C9 (Homo sapiens, UniProt P11712). Put plainly: Inhibition of CYP2C9. It counts as ADME.
For data set [15], the target named is Estrogen receptor (Homo sapiens) (UniProt P03372). Put plainly: Binding affinity to ERalpha up to 10 uM.
In data set [16] the target is Estrogen receptor beta (Homo sapiens) (UniProt Q92731). As to the kind of experiment: Activity at ERbeta receptor up to 10 uM by transactivation assay.
Data set [17] deals with Thyroid hormone receptor alpha (Homo sapiens) (UniProt P10827). As to the kind of experiment: Activity at TRalpha receptor up to 10 uM by transactivation assay.

Activity calls are given as the source filed them. The rule behind the calls is not given here.

Usually Cmax stands for the highest concentration seen after dosing. The term AUC denotes concentration integrated over time. A word on the IC50: it is the concentration needed to halve the response being measured. As usually defined, the EC50 is the concentration at which the effect is half-maximal.

Sequence of Cytochrome P450 2D6 (P10635 whole entry): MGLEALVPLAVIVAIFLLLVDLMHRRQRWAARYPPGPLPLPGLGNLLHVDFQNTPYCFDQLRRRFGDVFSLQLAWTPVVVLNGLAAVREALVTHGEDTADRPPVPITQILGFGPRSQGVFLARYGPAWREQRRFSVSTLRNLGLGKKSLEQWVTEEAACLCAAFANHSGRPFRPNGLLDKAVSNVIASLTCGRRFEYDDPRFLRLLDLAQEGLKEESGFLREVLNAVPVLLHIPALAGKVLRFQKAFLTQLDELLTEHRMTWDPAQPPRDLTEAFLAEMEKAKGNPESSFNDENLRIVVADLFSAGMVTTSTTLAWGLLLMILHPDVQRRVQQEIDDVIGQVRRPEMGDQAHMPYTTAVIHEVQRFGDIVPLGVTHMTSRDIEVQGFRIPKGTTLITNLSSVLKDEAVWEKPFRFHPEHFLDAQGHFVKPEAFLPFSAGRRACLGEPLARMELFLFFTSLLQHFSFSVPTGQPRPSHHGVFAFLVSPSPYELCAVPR
Sequence of Estrogen receptor beta (Homo sapiens) (Q92731 whole entry): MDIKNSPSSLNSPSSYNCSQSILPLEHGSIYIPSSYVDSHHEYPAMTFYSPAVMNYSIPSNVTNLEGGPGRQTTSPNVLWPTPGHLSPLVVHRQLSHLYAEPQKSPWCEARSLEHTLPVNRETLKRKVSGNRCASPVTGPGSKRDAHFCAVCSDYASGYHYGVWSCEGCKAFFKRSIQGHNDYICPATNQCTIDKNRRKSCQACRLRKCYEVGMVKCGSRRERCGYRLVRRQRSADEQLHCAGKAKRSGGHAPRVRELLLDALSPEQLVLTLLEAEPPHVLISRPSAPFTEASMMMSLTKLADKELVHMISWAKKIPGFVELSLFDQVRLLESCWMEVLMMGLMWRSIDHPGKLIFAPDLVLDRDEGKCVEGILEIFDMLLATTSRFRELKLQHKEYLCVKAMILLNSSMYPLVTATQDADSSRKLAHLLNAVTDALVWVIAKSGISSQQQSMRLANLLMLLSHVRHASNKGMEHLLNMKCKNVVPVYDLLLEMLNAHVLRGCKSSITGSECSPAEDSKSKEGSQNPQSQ
Sequence of Cytochrome P450 2C9 (P11712 whole entry): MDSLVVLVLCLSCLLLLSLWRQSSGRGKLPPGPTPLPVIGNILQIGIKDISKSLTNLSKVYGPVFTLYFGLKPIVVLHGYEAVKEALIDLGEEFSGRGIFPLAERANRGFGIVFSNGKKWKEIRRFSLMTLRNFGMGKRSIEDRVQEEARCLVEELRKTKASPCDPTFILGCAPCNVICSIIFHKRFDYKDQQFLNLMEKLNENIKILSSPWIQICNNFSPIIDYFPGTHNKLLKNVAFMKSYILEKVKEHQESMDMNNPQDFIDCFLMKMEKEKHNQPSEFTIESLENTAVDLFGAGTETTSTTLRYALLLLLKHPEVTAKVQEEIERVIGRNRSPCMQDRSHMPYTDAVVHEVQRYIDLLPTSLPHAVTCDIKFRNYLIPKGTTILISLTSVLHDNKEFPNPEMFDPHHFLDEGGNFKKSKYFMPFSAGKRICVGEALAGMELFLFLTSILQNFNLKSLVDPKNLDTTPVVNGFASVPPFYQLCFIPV
Sequence of Estrogen receptor (Homo sapiens) (P03372 whole entry): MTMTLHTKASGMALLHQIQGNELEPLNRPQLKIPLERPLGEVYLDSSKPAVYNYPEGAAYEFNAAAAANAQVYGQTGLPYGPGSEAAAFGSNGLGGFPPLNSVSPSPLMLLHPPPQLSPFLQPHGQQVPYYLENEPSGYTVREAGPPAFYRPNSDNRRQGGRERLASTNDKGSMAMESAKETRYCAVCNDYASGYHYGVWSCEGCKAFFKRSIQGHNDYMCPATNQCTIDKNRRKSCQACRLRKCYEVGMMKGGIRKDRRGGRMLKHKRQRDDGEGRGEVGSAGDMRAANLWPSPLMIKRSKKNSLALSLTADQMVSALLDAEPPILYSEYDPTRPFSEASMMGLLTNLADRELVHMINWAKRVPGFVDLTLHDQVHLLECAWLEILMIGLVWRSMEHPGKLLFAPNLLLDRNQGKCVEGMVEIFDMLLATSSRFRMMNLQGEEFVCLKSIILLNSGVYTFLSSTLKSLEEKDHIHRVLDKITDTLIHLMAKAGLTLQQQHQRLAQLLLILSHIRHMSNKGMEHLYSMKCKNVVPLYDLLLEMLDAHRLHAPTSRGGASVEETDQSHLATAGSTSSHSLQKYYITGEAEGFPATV
Sequence of Thyroid hormone receptor alpha (Homo sapiens) (P10827 whole entry): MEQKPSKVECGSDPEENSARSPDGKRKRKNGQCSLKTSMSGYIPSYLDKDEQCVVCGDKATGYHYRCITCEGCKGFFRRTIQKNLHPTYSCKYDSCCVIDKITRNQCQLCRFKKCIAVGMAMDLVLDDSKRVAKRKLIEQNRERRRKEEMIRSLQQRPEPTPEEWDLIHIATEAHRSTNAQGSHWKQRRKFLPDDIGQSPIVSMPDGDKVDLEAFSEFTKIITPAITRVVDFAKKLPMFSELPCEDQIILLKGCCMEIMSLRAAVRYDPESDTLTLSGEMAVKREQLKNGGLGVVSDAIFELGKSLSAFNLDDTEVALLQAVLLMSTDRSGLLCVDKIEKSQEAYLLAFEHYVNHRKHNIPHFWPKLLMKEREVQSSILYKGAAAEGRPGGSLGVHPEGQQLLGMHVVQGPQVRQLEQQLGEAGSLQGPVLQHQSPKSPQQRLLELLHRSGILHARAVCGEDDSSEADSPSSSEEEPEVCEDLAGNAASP

As for `CC[C@@H](Oc1cccc(Cn2c(C)c(C(=O)c3ccc(Cl)cc3)c3ccc(OC(F)(F)F)cc32)c1)C(=O)O`, the Cmax in data set [1] was 1500 nM; in data set [4], 20 nM; in data set [5] it was 70 nM; in [8] it was 18600 nM. The result in data set [2] and in data set [3] was Active. In addition, the AUC at 216 h in [6] was 2.11 µM·h. Besides, the Activity in data set [7] was 12.8%; in [10], 127%. In data set [9], this compound had an AUC at 336 h of 40 µM·h. Further, the IC50 was determined as 2.62 µM in data set [11], 7 µM in data set [13] and 10 µM in data set [14]. Besides, the EC50 in [12] came out at 0.23 µM. Also, the outcome in data set [15], in [16] and in data set [17] was inactive.

For the origin of these results see ChEMBL document CHEMBL1158459, “Discovery of a peroxisome proliferator activated receptor gamma (PPARgamma) modulator with balanced PPARalpha activity for the treatment of type 2 diabetes and dyslipidemia” (J Med Chem, 2009).
